Measurements reported in patent US12473299B2, “Cross-linked nucleoside and nucleotide using same” (Osaka University, priority 2020, dated 2025).
In the oligonucleotide strings, read from the 5' end, every base follows the letter of its sugar. An asterisk marks phosphorothioate; unmarked linkages are phosphodiester. Other units and linkages are bracketed, terminal groups are in braces. A string of capitals states the bases alone. [BANA] = BANA-modified thymidine; l = locked nucleic acid (LNA); [HNA] = hexitol nucleic acid; [5mC] = 5-methylcytosine; d = 2'-deoxy (DNA)

Columns and labels:
Format in all cases: binding
[1] = test system: single-stranded oligo RNA 5′-r([…])-3′ (SEQ ID No. 36); assay: Double-strand forming ability (Tm) of mMALAT1 antisense oligonucleotides with RNA; details: for RNA Complement Tm: as in Example 9; for RNA Complement ΔTm: difference from the Tm of the sequence (26)
Protocol: (§1) The double-strand forming ability of the oligonucleotides was examined by subjecting the different types of oligonucleotides and the target strands to an annealing treatment to form double strands, and then measuring their Tm values. More specifically, a mixed liquid of each oligonucleotide (final concentration: 4 μM) and a phosphate buffer (10 mM, pH 7.2, 130 μL) containing sodium chloride (final concentration: 100 mM) was bathed in boiling water and then slowly cooled to room temperature. After that, the mixed liquid was cooled to 5° C. under nitrogen stream before starting the measurement. The temperature was raised to 90° C. at a rate of 0.5° C./min while absorbance at 260 nm was plotted at intervals of 0.5° C. The Tm value was calculated using a median method or differentiation (SEQ ID No. 17), and a mean value of three independent measurements was adopted.
Furthermore, the double-strand forming ability for RNA, of each oligonucleotide was assessed in a manner similar to that of Example 9. Two sequences shown in Table 42 below were used as controls (also represented by SEQ ID Nos. 34 and 35, respectively).
A single-stranded oligo RNA 5′-r([…])-3′ (SEQ ID No. 36) was used as a target strand.

[2] = test system: single-stranded oligo DNA 5′-d(AGCAAAAAACGC)-3′ (SEQ ID No. 19); assay: Double-strand forming ability (Tm) with single-stranded oligo DNA; details: for ssDNA ΔTm/mod.: Tm change per artificially modified nucleic acid base vs 5′-GCGTTTTTTGCT-3′; for ssDNA Tm: oligonucleotide 4 μM, 10 mM phosphate buffer pH 7.2, 100 mM NaCl, mean of three measurements
Protocol: as §1

[3] = test system: single-stranded oligo RNA 5′-r(AGCAAAAAACGC)-3′ (SEQ ID No. 18); assay: Double-strand forming ability (Tm) with single-stranded oligo RNA; details: for ssRNA ΔTm/mod.: Tm change per artificially modified nucleic acid base vs 5′-GCGTTTTTTGCT-3′; for ssRNA Tm: oligonucleotide 4 μM, 10 mM phosphate buffer pH 7.2, 100 mM NaCl, mean of three measurements; for RNA Complement ΔTm: difference from the Tm of the sequence (18); for RNA Complement Tm: sequences (18) to (21), as in Example 9
[4] = test system: single-stranded oligo RNA 5′-r(AGCAAAYAACGC)-3′; assay: Base selectivity (Tm, match/mismatch) with single-stranded oligo RNA
Protocol: as §1
(§2) For the above sequences (1) to (5), the double-strand forming ability (binding affinity) was examined in a similar manner using a single-stranded oligo RNA 5′-r([…])-3′ and a single-stranded oligo DNA 5′-d([…])-3′ as target strands.
(§3) For the single-stranded oligo RNA, Y was one of rA (SEQ ID No. 18), rU (SEQ ID No. 20), rG (SEQ ID No. 21), and rC (SEQ ID No. 22). For the single-stranded oligo DNA, Y was one of dA (SEQ ID No. 19), dT (SEQ ID No. 23), dG (SEQ ID No. 24), and dC (SEQ ID No. 25).
(§4) In the table, ΔTm was calculated by subtracting the Tm value of the match (dA or rA) from the Tm value of the mismatch.

[5] = test system: single-stranded oligo DNA 5′-d(AGCAAAYAACGC)-3′; assay: Base selectivity (Tm, match/mismatch) with single-stranded oligo DNA
Protocol: as §1, §2, §3, §4

[6] = sequences (1) to (5), label = unit at position 6, match

5′-d(5T^LA^g^t^t^c^a^c^t^g^a^a^T^LG^5)-3′ (antisense CTAGTTCACTGAATGC; BANA and LNA modifications, phosphorothioate linkages; modified_base (1)..(1) c = BANA-mC3; modified_base (2)..(2) t = BANA-t3; modified_base (3)..(3) a = LNA-a; modified_base (3)..(13) phosphorothioated; modified_base (14)..(14) t = BANA-t3; modified_base (15)..(15) g = LNA-g; modified_base (16)..(16) c = BANA-mC3) [(25), antisense oligonucleotide against mMALAT1; 5: BANA-^mC3, T: BANA-T3]
RNA Complement Tm [1]: 63.4 °C
RNA Complement ΔTm [1]: +1.3 °C

5′-d(5T^LA^g^t^t^c^a^c^t^g^a^a^T^^LG^5)-3′ (antisense CTAGTTCACTGAATGC; BANA and LNA modifications, phosphorothioate linkages; modified_base (1)..(1) c = SANA-mC3; modified_base (2)..(2) t = SANA-t3; modified_base (3)..(3) a = LNA-a; modified_base (4)..(16) phosphorothioated; modified_base (14)..(14) t = SANA-t3; modified_base (15)..(15) g = LNA-g; modified_base (16)..(16) c = SANA-mC3) [(23), antisense oligonucleotide against mMALAT1; 5: BANA-^mC3, T: BANA-T3]
RNA Complement Tm [1]: 61.0 °C
RNA Complement ΔTm [1]: −1.1 °C

5′-d(5^T^^LA^g^t^t^c^a^c^t^g^a^a^T^LG^5)-3′ (antisense CTAGTTCACTGAATGC; BANA and LNA modifications, phosphorothioate linkages; modified_base (1)..(1) c = SANA-mC3; modified_base (2)..(2) t = SANA-t3; modified_base (2)..(13) phosphorothioated; modified_base (3)..(3) a = LNA-a; modified_base (14)..(14) t = SANA-t3; modified_base (15)..(15) g = LNA-g; modified_base (16)..(16) c = SANA-mC3) [(24), antisense oligonucleotide against mMALAT1; 5: BANA-^mC3, T: BANA-T3]
RNA Complement Tm [1]: 61.7 °C
RNA Complement ΔTm [1]: −0.4 °C

5′-d(5^T^^LA^g^t^t^c^a^c^t^g^a^a^T^^LG^5)-3′ (antisense CTAGTTCACTGAATGC; sugars from the 5' end [BANA][BANA]ldddddddddd[BANA]l[BANA], [5mC] at 1, 16, all phosphorothioate, methylation of C not given here) [(22), antisense oligonucleotide against mMALAT1; 5: BANA-^mC3, T: BANA-T3, {circumflex}: PS]
RNA Complement Tm [1]: 60.3 °C
RNA Complement ΔTm [1]: −1.8 °C

5′-d(GCG111111GCT)-3′ (DNA GCGTTTTTTGCT; BANA-T1 modified nucleotides; modified_base (4)..(9) ANA-t1) [5′-GCG111111GCT-3′]
ssDNA ΔTm/mod. [2]: −1.8 °C
ssDNA Tm [2]: 40 °C
ssRNA ΔTm/mod. [3]: +3.3 °C
ssRNA Tm [3]: 68 °C

5′-d(GCG222222GCT)-3′ (DNA GCGTTTTTTGCT; BANA-T2 modified nucleotides; modified_base (4)..(9) t = BANA-t2) [5′-GCG222222GCT-3′, 2=Compound 19 (BANA-T2)]
ssDNA ΔTm/mod. [2]: −0.7 °C
ssDNA Tm [2]: 47 °C
ssRNA ΔTm/mod. [3]: +4.5 °C
ssRNA Tm [3]: 75 °C

5′-d(GCGTT1TTTGCT)-3′ (DNA GCGTTTTTTGCT; BANA-T1 modified nucleotide; modified_base (6)..(6) t = BANA-t1) [5′-GCGTT1TTTGCT-3′]
ssDNA ΔTm/mod. [2]: −10 °C
ssDNA Tm [2]: 41 °C
ssRNA ΔTm/mod. [3]: −4 °C
ssRNA Tm [3]: 44 °C

5′-d(GCGTT3L3TGCT)-3′ (DNA GCGTTTTTTGCT; LNA-T and BANA-T3 modified nucleotides; modified_base (6)..(6) t = BANA-t3; modified_base (7)..(7) t = LNA-t; modified_base (8)..(8) t = BANA-t3) [(20), L=LNA-T, 3=Compound 25 (BANA-T3)]
RNA Complement ΔTm [3]: −3 °C
RNA Complement Tm [3]: 60 °C

5′-d(GCGTT33LTGCT)-3′ (DNA GCGTTTTTTGCT; LNA-T and BANA-T3 modified nucleotides; modified_base (6)..(7) t = BANA-t3; modified_base (8)..(8) t =LNA-t) [(21), L=LNA-T, 3=Compound 25 (BANA-T3)]
RNA Complement ΔTm [3]: −2 °C
RNA Complement Tm [3]: 61 °C

5′-d(GCGTTHTTTGCT)-3′ (DNA GCGTTTTTTGCT; sugars from the 5' end d5 [HNA]1 d6, backbone not given here) [H=HNA-T, reference compound]
ssDNA ΔTm/mod. [2]: −4 °C
ssDNA Tm [2]: 47 °C
ssRNA ΔTm/mod. [3]: +1 °C
ssRNA Tm [3]: 49 °C

5′-d(GCGTTL33TGCT)-3′ (DNA GCGTTTTTTGCT; LNA-T and BANA-T3 modified nucleotides; modified_base (6)..(6) t = LNA-t; modified_base (7)..(8) t = BANA-t3) [(19), L=LNA-T, 3=Compound 25 (BANA-T3)]
RNA Complement ΔTm [3]: +1 °C
RNA Complement Tm [3]: 64 °C

5′-d(GCGTTLLLTGCT)-3′ (DNA GCGTTTTTTGCT; sugars from the 5' end d5 l3 d4, backbone not given here) [(18), L=LNA-T (LNA), reference compound]
RNA Complement Tm [3]: 63 °C

5′-d(GCGTTTTTTGCT)-3′ (DNA, backbone and methylation of C not given here) [native DNA (dT), reference compound]
ssDNA Tm [2]: 51 °C
ssRNA Tm [3]: 48 °C

5′-d(^LC^^LT^^LA^g^t^t^c^a^c^t^g^a^a^^LT^^LG^^LC)-3′ (antisense CTAGTTCACTGAATGC; sugars from the 5' end l3 d10 l3, all phosphorothioate, methylation of C not given here) [(26), control, LNA gapmer with PS, reference compound]
RNA Complement Tm [1]: 62.1 °C

5′-d(c^t^a^g^t^t^c^a^c^t^g^a^a^t^g^c)-3′ (antisense dC*dT*dA*dG*dT*dT*dC*dA*dC*dT*dG*dA*dA*dT*dG*dC) [(27), control, PS DNA, reference compound]
RNA Complement Tm [1]: 44.2 °C
RNA Complement ΔTm [1]: −17.9 °C

COc1ccc(C(OC[C@H]2OC3CCOC([C@@H]3n3cc(C)c(=O)[nH]c3=O)[C@H]2OP(OCCC#N)N(C(C)C)C(C)C)(c2ccccc2)c2ccc(OC)cc2)cc1 (stereo partly drawn) [compound 19]
base pairing with G ([4]; introduced into the oligonucleotides, compared with native DNA (dT) (SEQ ID No. 1)): suppressed base pairing with G
ssRNA: Tm, Y = rA [4, 6]: 48 °C
ssRNA: Tm, Y = rC ([4]; sequences (1) to (5), mismatch rC): 34 °C
ssRNA: Tm, Y = rG ([4]; sequences (1) to (5), mismatch rG): 39 °C
ssRNA: Tm, Y = rU ([4]; sequences (1) to (5), mismatch rU): 40 °C
ssRNA: ΔTm, Y = rC ([4]; ΔTm = Tm(mismatch) − Tm(match), mismatch rC): −14 °C
ssRNA: ΔTm, Y = rG ([4]; ΔTm = Tm(mismatch) − Tm(match), mismatch rG): −9 °C
ssRNA: ΔTm, Y = rU ([4]; ΔTm = Tm(mismatch) − Tm(match), mismatch rU): −8 °C
ssDNA: Tm, Y = dA [5, 6]: 42 °C
ssDNA: Tm, Y = dT ([5]; sequences (1) to (5), label = unit at position 6, mismatch dT): 38 °C
ssDNA: Tm, Y = dC ([5]; sequences (1) to (5), mismatch dC): 32 °C
ssDNA: Tm, Y = dG ([5]; sequences (1) to (5), mismatch dG): 31 °C
ssDNA: ΔTm, Y = dC ([5]; ΔTm = Tm(mismatch) − Tm(match), mismatch dC): −10 °C
ssDNA: ΔTm, Y = dG ([5]; ΔTm = Tm(mismatch) − Tm(match), mismatch dG): −11 °C
ssDNA: ΔTm, Y = dT ([5]; ΔTm = Tm(mismatch) − Tm(match), mismatch dT): −4 °C
